Drawing on patent publication US7943618B2, “Btk protein kinase inhibitors” (Roche Palo Alto LLC, priority 2007, dated 2011), this text covers IC50 for 34 compounds.

Structures are written as SMILES. Bounds are passed on as bounds.

The target of one assay is T1, Btk enzyme (His-tagged, full-length) (Homo sapiens, UniProt Q06187).
T1 construct: 5-10 nM Btk enzyme (His-tagged, full-length); His
T1 sequence (Q06187 whole entry): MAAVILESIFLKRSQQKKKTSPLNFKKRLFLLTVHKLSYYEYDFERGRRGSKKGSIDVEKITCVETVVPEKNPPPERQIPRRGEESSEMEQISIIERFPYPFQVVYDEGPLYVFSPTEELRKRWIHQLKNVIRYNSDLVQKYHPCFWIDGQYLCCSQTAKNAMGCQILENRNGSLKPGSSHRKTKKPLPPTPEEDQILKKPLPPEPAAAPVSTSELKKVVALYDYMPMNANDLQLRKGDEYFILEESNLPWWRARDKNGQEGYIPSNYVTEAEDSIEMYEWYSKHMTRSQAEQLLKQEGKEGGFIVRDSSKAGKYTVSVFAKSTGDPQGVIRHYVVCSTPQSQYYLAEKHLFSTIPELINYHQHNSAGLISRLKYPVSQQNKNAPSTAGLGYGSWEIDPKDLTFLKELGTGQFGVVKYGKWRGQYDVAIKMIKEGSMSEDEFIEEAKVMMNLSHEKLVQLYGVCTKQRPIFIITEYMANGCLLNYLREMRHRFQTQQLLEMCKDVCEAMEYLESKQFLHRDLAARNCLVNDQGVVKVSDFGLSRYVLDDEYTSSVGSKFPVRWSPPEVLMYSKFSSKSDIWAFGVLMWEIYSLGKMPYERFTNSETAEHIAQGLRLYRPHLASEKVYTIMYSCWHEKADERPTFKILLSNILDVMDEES
Nature of the assay: Bruton's Tyrosine Kinase (Btk) Inhibition Assay (33P filtration capture). It counts as biochemical. The note with it: Bruton's tyrosine kinase Assay (Example 34); Table I pyridazinones; 100 μM ATP. The source says:
Bruton's Tyrosine Kinase (Btk) Inhibition Assay
The assay is a capture of radioactive ^33P phosphorylated product through filtration. The interactions of Btk, biotinylated SH2 peptide substrate (Src homology), and ATP lead to phosphorylation of the peptide substrate. Biotinylated product is bound streptavidin sepharose beads. All bound, radiolabeled products are detected by scintillation counter.
Plates assayed are 96-well polypropylene (Greiner) and 96-well 1.2 μm hydrophilic PVDF filter plates (Millipore).
IC50 determinations are calculated from 10 data points per compound utilizing data produced from a standard 96-well plate assay template. One control compound and seven unknown inhibitors were tested on each plate and each plate was run twice. […] The control compound was staurosporine. Background was counted in the absence of peptide substrate. Total activity was determined in the presence of peptide substrate. The following protocol was used to determine Btk inhibition.
1) Sample preparation: The test compounds were diluted at half-log increments in assay buffer (imidazole, glycerol-2-phosphate, EGTA, MnCl2, MgCl2, BSA).
2) Bead preparation • a.) rinse beads by centrifuging at 500 g • b.) reconstitute the beads with PBS and EDTA to produce a 20% bead slurry
3) Pre-incubate reaction mix without substrate (assay buffer, DTT, ATP, ^33P ATP) and mix with substrate (assay buffer, DTT, ATP, ^33P ATP, peptide substrate) 30° C. for 15 min.
4) To start assay, pre-incubate 10 μL Btk in enzyme buffer (imidazole, glycerol-2-phosphate, BSA) and 10 μL of test compounds for 10 min at RT.
5) Add 30 μL reaction mixture without or with substrate to Btk and compounds.
6) Incubate 50 μL total assay mix for 30 min at 30° C.
7) Transfer 40 μL of assay to 150 μL bead slurry in filter plate to stop reaction.
8) Wash filter plate after 30 min, with following steps • a. 3×250 μL NaCl • b. 3×250 μL NaCl containing 1% phosphoric acid • c. 1×250 μL H2O
9) Dry plate for 1 h at 65° C. or overnight at RT
10) Add 50 μL microscint-20 and count ^33P cpm on scintillation counter.
Calculate percent activity from raw data in cpm percent activity=(sample−bkg)/(total activity−bkg)×100
Calculate IC50 from percent activity, using one-site dose response sigmoidal model y=A+((B−A)/(1+((x/C)^D))))
As for `COC(=O)c1ccc(Nc2cc(-c3cccc(NC(=O)c4ccc(C(C)(C)C)cc4)c3C)nn(C)c2=O)nc1` [Compound I-9], the IC50 (usually the point on the concentration scale where inhibition reaches its midpoint) came out at 160 nM. On the same count and under the same terms, then `Cc1c(NC(=O)c2ccc(C(C)(C)C)cc2)cccc1-c1cc(Nc2ccnc(S(C)(=O)=O)n2)c(=O)n(C)n1` [Compound I-13], with 1060 nM. Take `Cc1c(NC(=O)c2ccc(C(C)(C)O)cc2)cccc1-c1cc(Nc2ccc(C(=O)N3CCOCC3)cn2)c(=O)n(C)n1` [Compound I-15]: 374 nM corresponded to half-maximal inhibition (IC50). On the same count and under the same terms, with `Cc1c(NC(=O)c2ccc(C(C)(C)C)cc2)cccc1-c1cc(Nc2ccnc(OCC3CCNC3)n2)c(=O)n(C)n1` (stereo not shown) [Compound I-19, 4-tert-Butyl-N-(2-methyl-3-{1-methyl-6-oxo-5-[2-(pyrrolidin-3-ylmethoxy)-pyrimidin-4-ylamino]-1,6-dihydro-pyridazin-3-yl}-phenyl)-benzamide] the figure was 143 nM; with `Cc1c(NC(=O)c2ccc(C(C)(C)C)cc2)cccc1-c1cc(Nc2ccnc(N3CCC(O)C3)n2)c(=O)n(C)n1` (stereo not shown) [Compound I-22, 4-tert-Butyl-N-(3-{5-[2-(3-hydroxy-pyrrolidin-1-yl) -pyrimidin-4-ylamino]-1-methyl-6-oxo-1-6-dihydro-pyridazin-3-yl}-2-methyl-phenyl)-benzamide], 52 nM; with `Cc1c(NC(=O)c2ccc(N(C)C)cc2)cccc1-c1cc(Nc2ccc(C(=O)N3CCC(O)CC3)cn2)c(=O)n(C)n1` [Compound I-28, 4-Dimethylamino-N-(3-{5-[5-(4-hydroxy-piperidine-1-carbonyl)-pyridin-2-ylamino]-1-methyl-6-oxo-1,6-dihydro-pyridazin-3-yl}-2-methyl-phenyl)-benzamide], 34 nM. As for `Cn1nc(-c2cccc(CC(=O)NCCC(O)C(C)(C)C)c2)cc(Nc2ccc(C(=O)N3CCOCC3)cn2)c1=O` (stereo not shown) [Compound I-29], the IC50 was determined as 1720 nM. The compound `Cn1nc(-c2cccc(CC(=O)N3Cc4ccccc4C3)c2)cc(Nc2ccc(C(=O)N3CCC(O)CC3)cn2)c1=O` [Compound I-31] registered an IC50 of 155 nM. As for `Cn1nc(-c2cccc(CC(=O)c3ccc(C(C)(C)C)cc3)c2)cc(Nc2ccc(C(=O)N3CCOCC3)cn2)c1=O` [Compound I-37, 6-{3-[2-(4-tert-Butyl-phenyl)-2-oxo-ethyl]-phenyl}-2-methyl-4-[5-(morpholine-4-carbonyl)-pyridin-2-ylamino]-2H-pyridazin-3-one], the IC50 is 206 nM. The same measure, in the same setting: with `CC(=O)N1CCN(C(=O)Cc2cccc(-c3cc(Nc4ccc(C(=O)N5CCOCC5)cn4)c(=O)n(C)n3)c2)CC1` [Compound I-44] the figure was 61600 nM; with `Cn1nc(-c2cccc(NC(=O)c3ccc(C4CC4)cc3)c2CO)cc(Nc2ccc(C(=O)N3CCOCC3)cn2)c1=O` [Compound I-46], below 10 nM.

The assay is the same for the next values; noted with them: Bruton's tyrosine kinase Assay (Example 34); Table II pyridinones; 100 μM ATP.
`CCNC(=O)Nc1cc(-c2cccc(NC(=O)c3ccc(C(C)(C)C)cc3)c2C)cn(C)c1=O` [II-5] gave a half-maximal inhibitory concentration (IC50) of 13 nM. The compound `CNC(=O)Nc1cc(-c2cccc(NC(=O)c3ccc(N(C)C)nc3)c2C)cn(C)c1=O` [II-15, 6-Dimethylamino-N-{2-methyl-3-[1-methyl-5-(3-methyl-ureido)-6-oxo-1,6-dihydro-pyridin-3-yl]-phenyl}-nicotinamide] registered an IC50 of 2310 nM.

Compound `CNC(=O)Nc1cc(-c2cccc(NC(=O)c3ccc(N4CCCCC4)nc3)c2C)cn(C)c1=O` [II-19] registered an IC50 of 310 nM. Compound `CNC(=O)Nc1cc(-c2cccc(NC(=O)c3ccc4c(ccn4C)c3)c2C)cn(C)c1=O` [II-23, 1-Methyl-1H-indole-5-carboxylic acid{2-methyl-3-[1-methyl-5-(3-methyl-ureido)-6-oxo-1,6-dihydro-pyridin-3-yl]-phenyl}-amide] showed a half-inhibitory concentration (IC50) of 9930 nM. On the same count and under the same terms, then `CNC(=O)Nc1cc(-c2cccc(NC(=O)c3ccc(C(C)(C)C)cc3)c2)cn(C)c1=O` [II-27], with 131 nM. The same measure, in the same setting: then `CNC(=O)Nc1cc(-c2cccc(NC(=O)c3ccc(C(C)(C)O)cc3)c2C)cn(C)c1=O` [II-28, 4-(1-Hydroxy-1-methyl-ethyl)-N-{2-methyl-3-[1-methyl-5-(3-methyl-ureido)-6-oxo-1,6-dihydro-pyridin-3-yl]-phenyl}-benzamide], with 230 nM. Same read-out and setting: with `CNC(=O)Nc1cc(-c2cccc(CC(=O)N3Cc4cc(Cl)c(Cl)cc4C3)c2)cn(C)c1=O` [II-31] the figure was 14800 nM; with `CNC(=O)Nc1cc(-c2cccc(NC(=O)c3ccc(C(C)(C)C#N)cc3)c2C)cn(C)c1=O` [II-42, 4-(Cyano-dimethyl-methyl)-N-{2-methyl-3-[1-methyl-5-(3-methyl-ureido)-6-oxo-1,6-dihydro-pyridin-3-yl]-phenyl}-benzamide], 681 nM; with `CNC(=O)Nc1cc(-c2cccc(CC(=O)N3Cc4ccc(F)cc4C3)c2)cn(C)c1=O` [II-46], 3440 nM. The compound `CN(C)c1ccc(C(=O)Nc2cccc(-c3cc(Nc4ccc(C(=O)N5CCOCC5)cn4)c(=O)n(C)c3)c2CO)cc1` [II-49, 4-Dimethylamino-N-(2-hydroxymethyl-3-{1-methyl-5-[5-(morpholine-4-carbonyl)-pyridin-2-ylamino]-6-oxo-1,6-dihydro-pyridin-3-yl}-phenyl)-benzamide] displayed a 50% inhibitory concentration (IC50) below 10 nM. In turn, `Cn1cc(-c2cccc(NC(=O)c3ccc(C(C)(C)F)cc3)c2CO)cc(Nc2ccc(C(=O)N3CCOCC3)cn2)c1=O` [II-52] gave an IC50 below 10 nM. The same measure, in the same setting: then `C[C@H](O)CNC(=O)Nc1cc(-c2cccc(NC(=O)c3ccc(C4CC4)cc3)c2CO)cn(C)c1=O` [II-54], with 68 nM. Take `Cn1cc(-c2cccc(NC(=O)c3ccc(C(F)(F)F)cc3)c2CO)cc(Nc2ccc(C(=O)N3CCOCC3)cn2)c1=O` [II-55]: 85 nM corresponded to half-maximal inhibition (IC50). The same measure, in the same setting: then `CN(C)c1ccc(C(=O)Nc2cccc(-c3cc(Nc4ccccn4)c(=O)n(C)c3)c2CO)cc1` [II-59], with 20 nM; and `CN(C)c1ccc(C(=O)Nc2cccc(-c3cc(Nc4ccc(C(=O)N5CCC(N(C)C)CC5)cn4)c(=O)n(C)c3)c2CO)cc1` [II-60], with below 10 nM.

The compound `Cn1cc(-c2cccc(NC(=O)c3ccc(Br)cc3)c2CO)cc(Nc2ccc(C(=O)N3CCOCC3)cn2)c1=O` [II-63] had a concentration for half-maximal inhibition (IC50) of 31 nM.

The compound `Cn1cc(-c2cccc(NC(=O)c3ccc(C4(F)CC4)cc3)c2CO)cc(Nc2ccccn2)c1=O` [II-64] showed an IC50 of 50 nM. Same read-out and setting: then `CCNC(=O)Nc1cc(-c2cccc(NC(=O)c3ccc(C4(F)CC4)cc3)c2CO)cn(C)c1=O` [II-65], with 15 nM. Same read-out and setting: with `COC(C)(C)c1ccc(C(=O)Nc2cccc(-c3cc(Nc4ccc(C(=O)N5CCOCC5)cn4)c(=O)n(C)c3)c2CO)cc1` [II-66] the figure was 24 nM; with `Cn1cc(-c2cccc(NC(=O)c3ccccc3)c2CO)cc(Nc2ccc(C(=O)N3CCOCC3)cn2)c1=O` [II-67], 770 nM. The same measure, in the same setting: then `Cn1cc(-c2cccc(NC(=O)c3ccc(C(F)(C(F)(F)F)C(F)(F)F)cc3)c2CO)cc(Nc2ccc(C(=O)N3CCOCC3)cn2)c1=O` [II-68], with 71 nM; and `C#Cc1ccc(C(=O)Nc2cccc(-c3cc(Nc4ccc(C(=O)N5CCOCC5)cn4)c(=O)n(C)c3)c2CO)cc1` [II-69], with 76 nM; and `Cn1cc(-c2cccc(NC(=O)c3ccc4c(c3)OCC4(C)C)c2CO)cc(Nc2ccc(C(=O)N3CCOCC3)cn2)c1=O` [II-71, 3,3-Dimethyl-2,3-dihydro-benzofuran-6-carboxylic acid (2-hydroxymethyl-3-{1-methyl-5-[5-(morpholine-4-carbonyl)-pyridin-2-ylamino]-6-oxo-1,6-dihydro-pyridin-3-yl}-phenyl)-amide], with below 10 nM.
